Results from patent US6410792B1, “Amide derivatives and methods for using the same as selective neuropeptide Y receptor antagonists” (Bayer Corporation, priority 1997, dated 2002).
Structures can show the parent of a compound that is named as a salt.

Molecular target: T1, Y2 receptor (Homo sapiens, UniProt P49146)
T1 sequence (P49146 1-381): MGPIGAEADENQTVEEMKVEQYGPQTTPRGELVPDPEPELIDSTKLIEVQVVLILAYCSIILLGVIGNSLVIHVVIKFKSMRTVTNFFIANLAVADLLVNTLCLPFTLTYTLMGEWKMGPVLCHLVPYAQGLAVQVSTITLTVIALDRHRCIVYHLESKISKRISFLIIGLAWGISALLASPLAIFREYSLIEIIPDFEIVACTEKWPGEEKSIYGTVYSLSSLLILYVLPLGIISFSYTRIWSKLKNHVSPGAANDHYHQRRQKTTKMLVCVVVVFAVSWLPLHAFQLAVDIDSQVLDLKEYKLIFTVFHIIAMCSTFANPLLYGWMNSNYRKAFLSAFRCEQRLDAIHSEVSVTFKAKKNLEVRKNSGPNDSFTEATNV
Experiment: Y2 receptor binding assay ([125I]PYY, membrane protein)
Conditions: [125I]PYY binding, membrane protein; read-out: hNPY2 IC50
Protocol: B. Human Y2 and Y4/PP1 Receptor Binding Assays
Binding assays were performed on GF/C Millipore 96-well plates pretreated with 0.02% polyethylenimine. The binding buffer for rat Y2 binding is Krebs-Ringer bicarbonate (pH 7.4) containing 0.01% BSA and 0.005% bacitracin. Samples consist of membrane protein, 25 pM [1251]PYY and drug dilution. Nonspecific binding is defined by 1 μM NPY. The binding buffer for human Y4/PP1 binding consists of 137 mM NaCl, 5.4 mM KCl, 0.44 mM KH2PO4, 1.26 mM CaCl2, 0.81 mM MgSO4, 20 mM HEPES, 1 mM dithiothreitol, 0.1% bacitracin, 100 mg/l streptomycin sulfate, 1 mg/l aprotinin, 10 mg/ml soybean trypsin inhibitor and 0.3% BSA, pH 7.4. Samples consist of membrane protein, 50 pM human [1251]human PP (hPP: NEN DuPont, Boston, Mass.) and drug dilution. 1 μM hPP is used to define nonspecific binding.
After a 2 hour incubation at room temperature with constant mixing, the samples are aspirated on a vacuum manifold, and rinsed with ice-cold binding buffer. The amount of radioactivity in each well is quantitated with either gamma counting or liquid scintillation.

Q: Which IC50 does the source give for “1-[(4 Benzoyl-phenylcarbamoyl)-methyl]-4-dimethylamino-piperidine-4-carboxylic acid amide [Compound 53]” here?
A: > 5 µM

Q: With “1-[(4-Cyclohexyl-phenylcarbamoyl)-methyl]-piperidine-4-carboxylic acid [Compound 25]” as the compound, how does the IC50 read?
A: > 5 µM

Q: How did the IC50 turn out when “2-[4-(4-Bromo-phenyl)-4-hydroxy-piperidin-1-yl]-N-(4-cyclohexyl-phenyl)-acetamide [Compound 88]” was run?
A: > 5 µM

Q: How did the IC50 turn out when “2-[4-(4-Chloro-phenyl)-3,6-dihydro-2H-pyridin-1-yl]-N-(4-cyclohexyl-phenyl)-acetamide [Compound 15]” was run?
A: > 5 µM

Q: Which IC50 does the source give for `O=C(CN1CCC(O)(Cc2ccccc2)CC1)Nc1ccc(C2CCCCC2)cc1` [Compound 1, 2-(4-Benzyl-4-hydroxypiperidin-1-yl)-N-(4-cyclohexylphenyl)acetamide] here?
A: > 5 µM

Q: Which IC50 does the source give for `CN(C)CC(=O)Nc1ccc(C2CCCCC2)cc1` [Compound 2, N-(4-Cyclohexyl-phenyl)-2-dimethylamino-acetamide] here?
A: > 5 µM

Q: `O=C(CN1CCN(c2ccc(Cl)cc2)CC1)Nc1ccc(C2CCCCC2)cc1` [Compound 4, 2-[4-(4-Chloro-phenyl)-piperazin-1-yl]-N-(4-cyclohexyl-phenyl)-acetamide] was tested. Which IC50 did it give?
A: > 5 µM

Q: How did the IC50 turn out when `O=C(CN1CCCC1C(=O)O)Nc1ccc(C(=O)c2ccccc2)cc1` (centres unmarked) [Compound 124, 1-[(4-Benzoyl-phenylcarbamoyl)-methyl]-pyrrolidine-2-carboxylic acid] was run?
A: > 5 µM

Same assay, conditions: [125I]PYY, membrane protein; read-out: hNPY2 IC50

Q: With `O=C(CN1CCC(n2c(=O)[nH]c3ccccc32)CC1)NC(c1ccccc1)c1ccccc1` [Compound 322, N-Benzhydryl-2-[4-(2-oxo-2,3-dihydro-benzoimidazol-1-yl)-piperidin-1-yl]-acetamide; hydrochloride] as the compound, how does the IC50 read?
A: > 5 µM

Molecular target: T2, Human NPY5 receptor (Homo sapiens, UniProt Q15761)
T2 sequence (Q15761 1-445): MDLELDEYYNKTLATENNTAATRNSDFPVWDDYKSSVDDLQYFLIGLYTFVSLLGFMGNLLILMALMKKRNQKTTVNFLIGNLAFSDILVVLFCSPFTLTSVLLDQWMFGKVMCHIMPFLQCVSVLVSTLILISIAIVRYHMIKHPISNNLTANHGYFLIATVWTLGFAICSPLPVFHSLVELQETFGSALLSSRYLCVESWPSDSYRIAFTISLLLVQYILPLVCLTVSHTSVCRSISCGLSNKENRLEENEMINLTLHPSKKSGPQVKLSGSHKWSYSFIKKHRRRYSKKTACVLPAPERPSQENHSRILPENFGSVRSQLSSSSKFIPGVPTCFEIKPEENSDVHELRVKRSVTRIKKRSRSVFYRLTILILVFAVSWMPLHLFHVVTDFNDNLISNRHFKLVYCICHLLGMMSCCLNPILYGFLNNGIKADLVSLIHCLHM
Experiment: Human NPY5 receptor binding assay ([125I]PYY, membrane protein)
Conditions: [125I]PYY binding, read-out: hNPY5 IC50
Protocol: C. Human and Rat NPY5 Receptor Binding Assays
Binding assays are performed on GF/C Millipore 96well plates pretreated with 0.02% polyethylenimine. The binding buffer is 25 mM Tris, 120 mM NaCl, 5 mM KCl, 1.2 mM KH2PO4, 2.5 mM CaCl2, 1.2 mM MgSO4, 0.1% BSA and 0.5 mg/ml bacitracin, pH 7.4. Samples consist of membrane protein, 75-100 pM [125I]PYY (porcine, NEN-DuPont) and drug dilution. Nonspecific binding is defined by 1 μM PYY. After a 2 hour incubation at room temperature with constant mixing, the samples are aspirated on a vacuum manifold, and rinsed with ice-cold binding buffer. The amount of radioactivity in each well is quantitated with either gamma counting or liquid scintillation.

Q: Which IC50 does the source give for “1-[(4 Benzoyl-phenylcarbamoyl)-methyl]-4-dimethylamino-piperidine-4-carboxylic acid amide [Compound 53]” here?
A: 0.44 µM

Q: Which IC50 does the source give for “1-[(4-Cyclohexyl-phenylcarbamoyl)-methyl]-piperidine-4-carboxylic acid [Compound 25]” here?
A: 1.9 µM

Q: Which IC50 does the source give for “2-[4-(4-Bromo-phenyl)-4-hydroxy-piperidin-1-yl]-N-(4-cyclohexyl-phenyl)-acetamide [Compound 88]” here?
A: 0.12 µM

Q: How did the IC50 turn out when “2-[4-(4-Chloro-phenyl)-3,6-dihydro-2H-pyridin-1-yl]-N-(4-cyclohexyl-phenyl)-acetamide [Compound 15]” was run?
A: 2.7 µM

Q: Which IC50 does the source give for `O=C(CN1CCC(O)(Cc2ccccc2)CC1)Nc1ccc(C2CCCCC2)cc1` [Compound 1, 2-(4-Benzyl-4-hydroxypiperidin-1-yl)-N-(4-cyclohexylphenyl)acetamide] here?
A: 0.15 µM

Q: Which IC50 does the source give for `CN(C)CC(=O)Nc1ccc(C2CCCCC2)cc1` [Compound 2, N-(4-Cyclohexyl-phenyl)-2-dimethylamino-acetamide] here?
A: 0.78 µM

Q: For `O=C(CN1C[C@H](O)C[C@H]1C(=O)O)Nc1ccc(C2CCCCC2)cc1` [Compound 12, (4R,2S)-1-[(4-Cyclohexyl-phenylcarbamoyl)-methyl]-4-hydroxy-pyrrolidine-2-carboxylic acid], which IC50 is on record?
A: 8.9 µM

Q: For `CN(C)C1(C(N)=O)CCN(CC(=O)Nc2ccc(C3CCCCC3)cc2)CC1` [Compound 65, 1-[(4-Cyclohexyl-phenylcarbamoyl)-methyl]-4-dimethylamino-piperidine-4-carboxylic acid amide], which IC50 is on record?
A: 0.69 µM

Q: How did the IC50 turn out when `O=C(CNC(c1ccccc1)c1ccccc1)Nc1ccc(C2CCCCC2)cc1` [Compound 131, 2-(Benzhydryl-amino)-N-(4-cyclohexyl-phenyl)-acetamide] was run?
A: > 5 µM

Q: Which IC50 does the source give for `NCCNCC1CCN(CC(=O)Nc2ccc(C(=O)c3ccccc3)cc2)CC1` [Compound 134, 2-{4-[(2-Amino-ethylamino)-methyl]-piperidin-1-yl}-N-(4-benzoyl-phenyl)-acetamide] here?
A: > 5 µM

Q: `O=C(CN1CCCC1)Nc1ccc(C(=O)c2ccccc2)cc1` [Compound 136, N-(4-Benzoyl-phenyl)-2-pyrrolidin-1-yl-acetamide] was tested. Which IC50 did it give?
A: > 5 µM

Q: Which IC50 does the source give for `O=C(CNc1nc[nH]n1)Nc1ccc(C(=O)c2ccccc2)cc1` [Compound 137, N-(4-Benzoyl-phenyl)-2-(1H-[1,2,4]triazol-3-ylamino)-acetamide] here?
A: > 5 µM

Q: How did the IC50 turn out when `O=C(CNC(c1ccccc1)c1ccccc1)Nc1ccc(C(=O)c2ccccc2)cc1` [Compound 138, 2-(Benzhydryl-amino)-N-(4-benzoyl-phenyl)-acetamide] was run?
A: > 5 µM

Q: With `Cn1cccc1CCNCC(=O)Nc1ccc(C(=O)c2ccccc2)cc1` [Compound 139, N-(4-Benzoyl-phenyl)-2-[2-(1-methyl-1H-pyrrol-2-yl)-ethylamino]-acetamide] as the compound, how does the IC50 read?
A: > 5 µM

Q: How did the IC50 turn out when `CCCCCCCCCCNCC(=O)Nc1ccc(C2CCCCC2)cc1` [Compound 140, N-(4-Cyclohexyl-phenyl)-2-decylamino-acetamide] was run?
A: > 5 µM

Q: For `O=C(CNCCCc1ccccc1)Nc1ccc(C2CCCCC2)cc1` [Compound 141, N-(4-Cyclohexyl-phenyl)-2-(3-phenyl-propylamino)-acetamide], which IC50 is on record?
A: > 5 µM

Q: For `O=C(CNCCc1c[nH]cn1)Nc1ccc(C2CCCCC2)cc1` [Compound 142, N-(4-Cyclohexyl-phenyl)-2-[2-(1H-imidazol-4-yl)-ethylamino]-acetamide], which IC50 is on record?
A: > 5 µM

Q: Which IC50 does the source give for `O=C(CNCCc1c[nH]c2ccccc12)Nc1ccc(C2CCCCC2)cc1` [Compound 143, N-(4-Cyclohexyl-phenyl)-2-[2-(1H-indol-3-yl)-ethylamino]-acetamide] here?
A: > 5 µM

Q: With `COc1ccc2[nH]cc(CCNCC(=O)Nc3ccc(C4CCCCC4)cc3)c2c1` [Compound 144, N-(4-Cyclohexyl-phenyl)-2-[2-(5-methoxy-1H-indol-3-yl)-ethylamino]-acetamide] as the compound, how does the IC50 read?
A: > 5 µM

Q: For `COc1ccc(CCNCC(=O)Nc2ccc(C3CCCCC3)cc2)cc1` [Compound 145, N-(4-Cyclohexyl-phenyl)-2-[2-(4-methoxy-phenyl)-ethylamino]-acetamide], which IC50 is on record?
A: > 5 µM

Q: Which IC50 does the source give for `O=C(CNCCN1CCNCC1)Nc1ccc(C2CCCCC2)cc1` [Compound 146, N-(4-Cyclohexyl-phenyl)-2-(2-piperazin-1-yl-ethylamino)-acetamide] here?
A: > 5 µM

Q: How did the IC50 turn out when `O=C(CNCCNc1ccc([N+](=O)[O-])cn1)Nc1ccc(C2CCCCC2)cc1` [Compound 147, N-(4-Cyclohexyl-phenyl)-2-[2-(5-nitro-pyridin-2-ylamino)-ethylamino]-acetamide] was run?
A: > 5 µM

Q: Which IC50 does the source give for `COc1ccccc1CNCC(=O)Nc1ccc(C2CCCCC2)cc1` [Compound 149, N-(4-Cyclohexyl-phenyl)-2-(2-methoxy-benzylamino)-acetamide] here?
A: > 5 µM

Q: How did the IC50 turn out when `CCCCCCCCCCNCC(=O)Nc1ccc(C(=O)c2ccccc2)cc1` [Compound 150, N-(4-Benzoyl-phenyl)-2-decylamino-acetamide] was run?
A: > 5 µM

Q: `O=C(CNCCCc1ccccc1)Nc1ccc(C(=O)c2ccccc2)cc1` [Compound 151, N-(4-Benzoyl-phenyl)-2-(3-phenyl-propylamino)-acetamide] was tested. Which IC50 did it give?
A: > 5 µM

Q: `O=C(CNCCc1c[nH]cn1)Nc1ccc(C(=O)c2ccccc2)cc1` [Compound 152, N-(4-Benzoyl-phenyl)-2-[2-(1H-imidazol-4-yl)-ethylamino]-acetamide] was tested. Which IC50 did it give?
A: > 5 µM

Q: For `O=C(CNCCc1c[nH]c2ccccc12)Nc1ccc(C(=O)c2ccccc2)cc1` [Compound 153, N-(4-Benzoyl-phenyl)-2-[2-(1H-indo-3-yl)-ethylamino]-acetamide], which IC50 is on record?
A: > 5 µM

Q: For `COc1ccc(CCNCC(=O)Nc2ccc(C(=O)c3ccccc3)cc2)cc1` [Compound 155], which IC50 is on record?
A: > 5 µM

Q: `O=C(CNCCN1CCNCC1)Nc1ccc(C(=O)c2ccccc2)cc1` [Compound 156, N-(4-Benzoyl-phenyl)-2-(2-piperazin-1-yl-ethylamino)-acetamide] was tested. Which IC50 did it give?
A: > 5 µM

Q: How did the IC50 turn out when `O=C(CNCCNc1ccc([N+](=O)[O-])cn1)Nc1ccc(C(=O)c2ccccc2)cc1` [Compound 157, N-(4-Benzoyl-phenyl)-2-[2-(5-nitro-pyridin-2-ylamino)-ethylamino]-acetamide] was run?
A: > 5 µM

Q: `O=C(CNCc1ccc2c(c1)OCO2)Nc1ccc(C(=O)c2ccccc2)cc1` [Compound 158, 2-[(Benzo[1,3]dioxol-5-ylmethyl)-amino]-N-(4-benzoyl-phenyl)-acetamide] was tested. Which IC50 did it give?
A: > 5 µM

Q: Which IC50 does the source give for `COc1ccccc1CNCC(=O)Nc1ccc(C(=O)c2ccccc2)cc1` [Compound 159, N-(4-Benzoyl-phenyl)-2-(2-methoxy-benzylamino)-acetamide] here?
A: > 5 µM
